Reference: patent US9790211B2, “5-amino-quinoline-8-carboxamide derivatives as 5-HT4 receptor agonists” (SUVEN LIFE SCIENCES LIMITED, priority 2013, dated 2017)
Read-outs that look alike come from different tables or passages of the source.

Key:
Male Wistar rats = test: Object recognition task model; assay type: in vivo; conditions: dose mg/kg: Ex 1 0.1, Ex 2 0.03, Ex 4 0.03, Ex 13 1, Ex 23 0.01, Ex 37 10, Ex 43 0.3
Experimental: The cognition enhancing properties of compounds of this invention were estimated by using this model.
Male Wistar rats (230-280 grams) were used as experimental animals. Four animals were housed in each cage. Animals were kept on 20% food deprivation before one day and given water ad libitum throughout the experiment and maintained on a 12 hours light/dark cycle. Also the rats were habituated to individual arenas for 1 hour in the absence of any objects.
One group of 12 rats received vehicle (1 mL/Kg) orally and another set of animals received compound of the formula (I) either orally or i.p., before one hour of the familiar (T1) and choice trial (T2).
The experiment was carried out in a 50×50×50 cm open field made up of acrylic. In the familiarization phase, (T1), the rats were placed individually in the open field for 3 minutes, in which two identical objects (plastic bottles, 12.5 cm height×5.5 cm diameter) covered in yellow masking tape alone (a1 and a2) were positioned in two adjacent corners, 10 cms from the walls. After 24 hours of the (T1) trial for long-term memory test, the same rats were placed in the same arena as they were placed in T1 trial. Choice phase (T2) rats were allowed to explore the open field for 3 minutes in presence of one familiar object (a3) and one novel object (b) (Amber color glass bottle, 12 cm high and 5 cm in diameter). Familiar objects presented similar textures, colors and sizes. During the T1 and T2 trial, explorations of each object (defined as sniffing, licking, chewing or having moving vibrissae whilst directing the nose towards the object at a distance of less than 1 cm) were recorded separately by stopwatch. Sitting on an object was not regarded as exploratory activity, however, it was rarely observed.
T1 is the total time spent exploring the familiar objects (a1+a2).
T2 is the total time spent exploring the familiar object and novel object (a3+b).
The object recognition test was performed as described by Behaviour Brain Research, (1988), 31, 47-59.

[1] = target: T1, recombinant human 5-HT4 receptor (Homo sapiens, UniProt Q13639); test: Determination of EC50 values for 5-HT4 receptor (CHO cells, pCRE-Luc reporter); assay type: cell-based; conditions: for Emax: CHO; for EC50: 4 hours incubation
T1 construct: expressed in transfected cells
Experimental: Determination of EC50 Values for 5-HT4 Receptor
A stable CHO cell line expressing recombinant human 5-HT4 receptor and pCRE-Luc reporter system was used for cell-based assay. The assay offers a non-radioactive based approach to determine binding of a compound to GPCRs. In this specific assay, the level of intracellular cyclic AMP, which is modulated by activation, or inhibition of the receptor is measured. The recombinant cells harbor luciferase reporter gene under the control of cAMP response element.
The above cells were grown in 96 well clear bottom white plates in Hams F12 medium containing 10% fetal bovine serum (FBS). Prior to the addition of compounds or standard agonist, cells were serum starved overnight. Increasing concentrations of test compounds were added in OptiMEM medium to the cells. The incubation was continued at 37° C. in CO2 incubator for 4 hours. Medium was removed and cells were washed with phosphate buffered saline. The cells were lysed and luciferase activity was measured in a Luminometer. Luminescence units were plotted against the compound concentrations using Graphpad software.

Aβ1-40 = test: Effect on CSF Aβ1-40 level (ELISA); assay type: in vivo, Male Sprague Dawley Rat; conditions: 50.0 mg/kg p.o., positive control
Experimental: (§1) The control group of male rats received a vehicle (reagent grade water) per orally by gavage at a dose volume of 10 mL/kg. The treated groups (6 rat per group) received a single dose of test compound (different doses) or DAPT (50.0 mg/kg). Two hour post dose of vehicle or test compounds, rats were anesthetized with isoflurane and CSF was collected from Cisterna magna using 0.5 mL syringes by utilizing stereotaxic frame. The CSF samples were frozen in liquid nitrogen and stored at −80° C. until ELISA was performed.
(§2) • 1. CSF samples were thawed to RT and diluted with Tris Buffer Saline containing protease inhibitors at 1:10 ratio 115:150 μL (15 μL CSI+135 μL TBS. • 2. To this diluted CSF samples 0.15 mL of EIA buffer (1:1 ratio) was added. These diluted samples were subjected for Aβ1-40 level measurement by ELISA. Measurement of Aβ1-40 by ELISA Kit:
To investigate the role of an acute treatment of test compound on Aβ1-40 levels, expression of this protein in CSF was measured in treated and untreated rat by ELISA assay. The entire procedure was followed as per ELISA kit manual (Mouse/Rat Amyloid-Aβ1-40 ELISA, Cat No: 27721, IBL International, Hamburg, Germany).
(§3) Statistical analysis was performed using the Graph Pad Prism (Version 4). Data are Mean±SD of Aβ1-40 levels expressed as percentage of control values (rat which received regent grade water). Values were compared between the different groups by using unpaired t test. The significance level was set at *p<0.05; **p<0.01; ***p<0.001.

Aβ1-42 = test: Effect on CSF Aβ1-42 level (ELISA); assay type: in vivo, Male Sprague Dawley Rat; conditions: 50.0 mg/kg p.o., positive control
Experimental: as §1, with “by puncturing” for “from”, “frame.” for “frame. The”
as §2, with “[15:150” for “115:150”, “CSF+ 135” for “CSI+135”, “TBS],” for “TBS.”, “Aβ1-42” for “Aβ1-40”
To investigate the role of an acute treatment of test compound on Aβ1-42 levels, expression of this protein was measured in CSF of treated and untreated rat by ELISA assay. The entire procedure was followed as described in ELISA kit manual (Mouse/Rat […], Cat No: 27720, IBL International, Hamburg, Germany).
as §3, with “analyses were” for “analysis was”, “Aβ1-42” for “Aβ1-40”, “by” for “by using”

[2] = CHO cells, human 5-HT4 receptor, luciferase reporter
[3] = CHO cells, human 5-HT4 receptor, luciferase reporter, read-out: Emax

T1 sequence (Q13639 whole entry): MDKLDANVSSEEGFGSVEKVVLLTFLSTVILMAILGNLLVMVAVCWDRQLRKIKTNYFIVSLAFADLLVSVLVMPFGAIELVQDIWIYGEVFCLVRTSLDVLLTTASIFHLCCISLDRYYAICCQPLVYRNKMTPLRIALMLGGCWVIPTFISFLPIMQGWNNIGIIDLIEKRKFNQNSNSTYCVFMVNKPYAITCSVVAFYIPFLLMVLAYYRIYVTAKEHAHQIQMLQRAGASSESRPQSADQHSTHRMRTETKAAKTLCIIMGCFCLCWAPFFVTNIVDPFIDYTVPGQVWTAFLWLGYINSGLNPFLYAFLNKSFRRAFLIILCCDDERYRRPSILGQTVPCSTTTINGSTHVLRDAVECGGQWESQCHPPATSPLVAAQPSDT

EC50 [1, 2] [nM]	Emax [1, 3] [%]	Compound	Emax [1] [%]	other results
8.9	84	CC(C)(F)CN1CCC(F)(CNC(=O)c2cc(Cl)c(N)c3cccnc23)CC1 [Example 48, 5-Amino-6-chloro-N-{[4-fluoro-1-(2-fluoro-2-methylpropyl)-4-piperidinyl]methyl} quinoline-8-carboxamide]		
1.7	72	Nc1c(Cl)cc(C(=O)NCC2C3CN(CCO)CC23)c2ncccc12 (centres unmarked) [Example 50, 5-Amino-6-chloro-N-{[3-(2-hydroxyethyl)-3-azabicyclo[3.1.0]hex-6-yl]methyl} quinoline-8-carboxamide]		
0.41	63	Nc1c(Cl)cc(C(=O)NCC2CCN(CCF)CC2)c2ncccc12 [Example 52, 5-Amino-6-chloro-N-{[1-(2-fluoroethyl)-4-piperidinyl]methyl}quinoline-8-carboxamide]		
4.5	65	Nc1c(Cl)cc(C(=O)NCC2C3CN(CCF)CC23)c2ncccc12 (centres unmarked) [Example 53]		

The next lines start with the molecule.

Compound	EC50 [1, 2] [nM]	Emax [1, 3] [%]	Emax [1] [%]	other results
Nc1c(Cl)cc(C(=O)NCC2CCN(CC3CCOC3)CC2)c2ncccc12.O=C(O)C(O)C(O)C(=O)O (racemic) [Example 4, (R,S) 5-Amino-6-chloro-N-{[1-(tetrahydro-3-furanylmethyl)-4-piperidinyl]methyl} quinoline-8-carboxamide L(+)-tartarate]	0.05		56	Exploration time mean ± S.E.M, Familiar object (Male Wistar rats; choice trial T2, p.o.): 6.96 ± 1.02 s; Exploration time mean ± S.E.M, Novel object (Male Wistar rats; choice trial T2, p.o.): 12.37 ± 1.22 s; Inference (Male Wistar rats; p.o.): Active
C[C@H](NC(=O)Cc1cc(F)cc(F)c1)C(=O)N[C@H](C(=O)OC(C)(C)C)c1ccccc1 [DAPT, reference compound]				level of Aβ1-40 in rat CSF (in words) (Aβ1-40): significantly decreased; levels of Aβ1-42 in rat CSF (in words) (Aβ1-42): significantly decreased
CC(C)(F)CN1CCC(CNC(=O)c2cc(Cl)c(N)c3cccnc23)CC1 [Example 46, 5-Amino-6-chloro-N-{[1-(2-fluoro-2-methylpropyl)-4-piperidinyl]methyl}quinoline-8-carboxamide]	0.1	58		
Nc1c(Cl)cc(C(=O)NCC2C3CN(CCCO)CC23)c2ncccc12 (centres unmarked) [Example 51, 5-Amino-6-chloro-N-{[3-(3-hydroxypropyl)-3-azabicyclo[3.1.0]hex-6-yl]methyl} quinoline-8-carboxamide]	1.4	85		
COCCCN1CC2C(CNC(=O)c3cc(Cl)c(N)c4cccnc34)C2C1 (stereo not drawn) [Example 54, 5-Amino-6-chloro-N-{[3-(3-methoxypropyl)-3-azabicyclo[3.1.0]hex-6-yl]methyl}quinoline-8-carboxamide L(+)-tartarate]	0.7		70	
COCC(C)(C)CN1CCC(CNC(=O)c2cc(Cl)c(N)c3cccnc23)CC1 [Example 55, 5-Amino-6-chloro-N-{[1-(3-methoxy-2,2-dimethylpropyl)-4-piperidinyl]methyl}quinoline-8-carboxamide L(+)-tartarate]	0.09		72	
